The text below walks through data of US20090062294A1, “HETEROARYL-SUBSTITUTED UREA MODULATORS OF FATTY ACID AMIDE HYDROLASE” (priority 2007, published 2009).

Where a name gives a salt, the structure may show the parent alone. Bounds are passed on as bounds.

What is called IC50 is the concentration needed to halve the response being measured. A lower IC50 goes with greater potency in that assay.

In assay [1] the target is T1, rat FAAH (Rattus norvegicus, UniProt P97612).
T1 sequence (P97612 1-579): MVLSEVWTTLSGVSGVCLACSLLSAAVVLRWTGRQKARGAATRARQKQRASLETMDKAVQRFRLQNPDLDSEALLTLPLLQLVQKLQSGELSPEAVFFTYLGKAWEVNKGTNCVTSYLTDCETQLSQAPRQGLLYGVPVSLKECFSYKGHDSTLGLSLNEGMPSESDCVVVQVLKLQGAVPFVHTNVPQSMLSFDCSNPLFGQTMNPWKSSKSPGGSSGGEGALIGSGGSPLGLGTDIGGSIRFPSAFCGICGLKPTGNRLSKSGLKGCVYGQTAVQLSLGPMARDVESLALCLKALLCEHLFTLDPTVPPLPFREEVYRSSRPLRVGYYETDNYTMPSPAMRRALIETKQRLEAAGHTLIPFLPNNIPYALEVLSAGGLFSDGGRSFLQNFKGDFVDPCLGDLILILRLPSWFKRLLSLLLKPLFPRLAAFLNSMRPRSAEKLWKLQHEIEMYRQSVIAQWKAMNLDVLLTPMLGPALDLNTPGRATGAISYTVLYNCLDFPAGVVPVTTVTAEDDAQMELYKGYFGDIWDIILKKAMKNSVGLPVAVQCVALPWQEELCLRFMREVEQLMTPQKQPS
As to the kind of experiment: Assay Method 2: FAAH assay, 3H-anandamide hydrolysis in homogenate of SK-N-MC cells transfected with rat FAAH. The class given is biochemical. The note with it: average of results, > = solubility limit or highest concentration tested. How it is done: A. Transfection of Cells with Rat FAAH
(§1) A 10-cm tissue culture dish with a confluent monolayer of SK—N-MC cells was split 2 days (d) prior to transfection. Using sterile technique, the media was removed and the cells were detached from the dish by the addition of trypsin. One fifth of the cells were then placed onto a new 10-cm dish. Cells were grown in a 37° C. incubator with 5% CO2 in Minimal Essential Media Eagle with 10% Fetal Bovine Serum. After 2 d, cells were approximately 80% confluent. These cells were removed from the dish with trypsin and pelleted in a clinical centrifuge. The pellet was re-suspended in 400 μL complete media and transferred to an electroporation cuvette with a 0.4 cm gap between the electrodes. Supercoiled rat FAAH cDNA (1 μg) was added to the cells and mixed. The voltage for the electroporation was set at 0.25 kV, and the capacitance was set at 960 μF. After electroporation, the cells were diluted into complete media (10 mL) and plated onto four 10-cm dishes. Because of the variability in the efficiency of electroporation, four different concentrations of cells were plated. The ratios used were 1:20, 1:10, and 1:5, with the remainder of the cells being added to the fourth dish. The cells were allowed to recover for 24 h before adding the selection media (complete media with 600 μg/mL G418). After 10 d, dishes were analyzed for surviving colonies of cells. Dishes with well-isolated colonies were used. Cells from individual colonies were isolated and tested.
(§2) T84 frozen cell pellets or transfected SK—N-MC cells (contents of 1×15 cm culture dishes) were homogenized in 50 mL of FAAH assay buffer (125 mM Tris, 1 mM EDTA, 0.2% Glycerol, 0.02% Triton X-100, 0.4 mM Hepes, pH 9). The assay mixture consisted of 50 μL of the cell homogenate, 10 μL of the test compound, and 40 μL of anandamide [1-^3H-ethanolamine] (^3H-AEA, Perkin-Elmer, 10.3 Ci/mmol), which was added last, for a final tracer concentration of 80 nM. The reaction mixture was incubated at rt for 1 h. During the incubation, 96-well Multiscreen filter plates (catalog number MAFCNOB50; Millipore, Bedford, Mass., USA) were loaded with 25 μL of activated charcoal (Multiscreen column loader, catalog number MACL09625, Millipore) and washed once with 100 μL of MeOH. Also during the incubation, 96-well DYNEX MicroLite plates (catalog number NL510410) were loaded with 100 μL of MicroScint40 (catalog number 6013641, Packard Bioscience, Meriden, Conn., USA). After the 1 h incubation, 60 μL of the reaction mixture were transferred to the charcoal plates, which were then assembled on top of the DYNEX plates using Centrifuge Alignment Frames (catalog number MACF09604, Millipore). The unbound labeled ethanolamine was centrifuged through to the bottom plate (5 min at 2000 rpm), which was preloaded with the scintillant, as described above. The plates were sealed and left at rt for 1 h before counting on a Hewlett Packard TopCount.
(§3) Compounds were tested in free base, hydrochloride salt, and/or trifluoroacetic acid salt forms.

In assay [2] the target is T2, FAAH (Homo sapiens, UniProt O00519).
T2 sequence (O00519 1-579): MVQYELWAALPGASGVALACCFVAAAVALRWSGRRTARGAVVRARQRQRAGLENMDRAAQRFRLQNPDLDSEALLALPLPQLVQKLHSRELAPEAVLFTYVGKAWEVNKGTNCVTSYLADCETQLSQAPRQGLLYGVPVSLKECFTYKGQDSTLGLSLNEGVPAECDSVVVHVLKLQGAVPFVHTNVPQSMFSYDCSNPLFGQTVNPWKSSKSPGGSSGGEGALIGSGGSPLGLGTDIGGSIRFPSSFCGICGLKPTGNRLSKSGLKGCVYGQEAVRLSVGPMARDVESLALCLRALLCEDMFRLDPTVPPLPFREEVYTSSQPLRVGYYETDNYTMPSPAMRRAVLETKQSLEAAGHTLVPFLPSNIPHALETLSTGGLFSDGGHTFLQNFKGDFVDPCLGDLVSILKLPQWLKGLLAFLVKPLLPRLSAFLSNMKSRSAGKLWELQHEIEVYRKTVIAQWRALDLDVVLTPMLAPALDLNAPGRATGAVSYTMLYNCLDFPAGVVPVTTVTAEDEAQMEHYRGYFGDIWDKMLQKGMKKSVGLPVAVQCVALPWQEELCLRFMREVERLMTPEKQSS
As to the kind of experiment: Assay Method 1: FAAH assay, 3H-anandamide hydrolysis in homogenate of T84 cells or SK-N-MC cells transfected with human FAAH. It is filed as biochemical. To be noted: average of results, > = solubility limit or highest concentration tested. How it is done:
A. Transfection of Cells with Human FAAH
as §1, with “Supercoiled human” for “Supercoiled rat”
as §2, §3

Consider `O=C(Nc1cccc2nsnc12)N1CCN(Cc2ccc3c(c2)OC(F)(F)O3)CC1` [Example 4, 4-(2,2-Difluoro-benzo[1,3]dioxol-5-ylmethyl)-piperazine-1-carboxylic acid benzo[1,2,5]thiadiazol-4-ylamide trifluoroacetic acid salt], for which the IC50 in assay [1] came to 260 nM; in assay [2], 59 nM.
For `O=C(Nc1cccc2nonc12)N1CCN(Cc2ccc3c(c2)OC(F)(F)O3)CC1` [Example 5, 4-(2,2-Difluoro-benzo[1,3]dioxol-5-ylmethyl)-piperazine-1-carboxylic acid benzo[1,2,5]oxadiazol-4-ylamide trifluoroacetic acid salt] the same measures were 1200 nM and 170 nM.
Regarding `O=C(Nc1ccc2nn[nH]c2c1)N1CCN(Cc2ccc3c(c2)OC(F)(F)O3)CC1` [Example 6, 4-(2,2-Difluoro-benzo[1,3]dioxol-5-ylmethyl)-piperazine-1-carboxylic acid (3H-benzotriazol-5-yl)-amide trifluoroacetic acid salt], the figures for the IC50 in assay [1] and in assay [2] were 352 nM and 308 nM, respectively.
Taken in the same sequence, the figures for `O=C(Nc1cccs1)N1CCN(Cc2ccc3c(c2)OC(F)(F)O3)CC1` [Example 7, 4-(2,2-Difluoro-benzo[1,3]dioxol-5-ylmethyl)-piperazine-1-carboxylic acid thiophen-2-ylamide] were 2400 nM and 2000 nM.
Taken in the same sequence, the figures for `O=C(Nc1ccsc1)N1CCN(Cc2ccc3c(c2)OC(F)(F)O3)CC1` [Example 8, 4-(2,2-Difluoro-benzo[1,3]dioxol-5-ylmethyl)-piperazine-1-carboxylic acid thiophen-3-ylamide] were 290 nM and 770 nM.
Taken in the same sequence, the figures for `O=C(Nc1ccc(Cl)nn1)N1CCC(Cc2ccc3ccccc3c2)CC1` [Example 9, 4-Naphthalen-2-ylmethyl-piperidine-1-carboxylic acid (6-chloro-pyridazin-3-yl)-amide] were 57 nM and 552 nM.
For the molecule `O=C(Nc1cnccn1)N1CCC(Cc2ccc3ccccc3c2)CC1` [Example 10, 4-Naphthalen-2-ylmethyl-piperidine-1-carboxylic acid pyrazin-2-ylamide trifluoroacetic acid salt], the IC50 turned out to be 36 nM in assay [1] and 244 nM in assay [2].
Taken in the same sequence, the figures for `O=C(Nc1ccon1)N1CCC(Cc2ccc3ccccc3c2)CC1` [Example 11, 4-Naphthalen-2-ylmethyl-piperidine-1-carboxylic acid isoxazol-3-ylamide] were 170 nM and 1000 nM.
For the molecule `O=C(Nc1nc(-c2ccccc2)ns1)N1CCC(Cc2ccc3ccccc3c2)CC1` [Example 12, 4-Naphthalen-2-ylmethyl-piperidine-1-carboxylic acid (3-phenyl-[1,2,4]thiadiazol-5-yl)-amide], the values for the IC50 in assay [1] and in assay [2] were 3000 nM and 5000 nM, respectively.
Turning to `O=C(Nc1nnn[nH]1)N1CCC(Cc2ccc3ccccc3c2)CC1` [Example 13, 4-Naphthalen-2-ylmethyl-piperidine-1-carboxylic acid (1H-tetrazol-5-yl)-amide], the IC50 in assay [1] was found to be 87 nM; in assay [2], 5 nM.
Regarding `O=C(Nc1ccn[nH]1)N1CCC(Cc2ccc3ccccc3c2)CC1` [Example 14, 4-Naphthalen-2-ylmethyl-piperidine-1-carboxylic acid (2H-pyrazol-3-yl)-amide], the IC50 was 63 nM in assay [1] and 218 nM in assay [2].
`O=C(Nc1cccc2nonc12)N1CCC(Cc2ccc3ccccc3c2)CC1` [Example 15, 4-Naphthalen-2-ylmethyl-piperidine-1-carboxylic acid benzo[1,2,5]oxadiazol-4-ylamide]: the IC50 in assay [1] was determined as 23 nM; in assay [2], 59 nM.
For `O=C(Nc1ccc2[nH]nnc2c1)N1CCC(Cc2ccc3ccccc3c2)CC1` [Example 16, 4-Naphthalen-2-ylmethyl-piperidine-1-carboxylic acid (1H-benzotriazol-5-yl)-amide] the same measures were 5 nM and 39 nM.
For `O=C(Nc1ccc2ccccc2n1)N1CCC(Cc2ccc3ccccc3c2)CC1` [Example 18, 4-Naphthalen-2-ylmethyl-piperidine-1-carboxylic acid quinolin-2-ylamide trifluoroacetic acid salt] the same measures were 9000 nM and greater than 10000 nM.
Take `O=C(Nc1ccc2ncsc2c1)N1CCC(Cc2ccc3ccccc3c2)CC1` [Example 19, 4-Naphthalen-2-ylmethyl-piperidine-1-carboxylic acid benzothiazol-6-ylamide]: the IC50 in assay [1] was determined as 55 nM; in assay [2] it was 1500 nM.
For `O=C(Nc1cccc2ncccc12)N1CCC(Cc2ccc3ccccc3c2)CC1` [Example 20, 4-Naphthalen-2-ylmethyl-piperidine-1-carboxylic acid quinolin-5-ylamide trifluoroacetic acid salt] the same measures were 250 nM and 935 nM.
For `O=C(Nc1noc2ccccc12)N1CCC(Cc2ccc3ccccc3c2)CC1` [Example 21, 4-Naphthalen-2-ylmethyl-piperidine-1-carboxylic acid benzo[d]isoxazol-3-ylamide] the same measures were 7 nM and 43 nM.
Taken in the same sequence, the figures for `O=C(Nc1noc2ccccc12)N1CCC(Cc2ccc(F)cc2)CC1` [Example 22, 4-(4-Fluoro-benzyl)-piperidine-1-carboxylic acid benzo[d]isoxazol-3-ylamide] were 77 nM and 108 nM.
